# Assay results: article PMC10035947, “Development of novel anilinoquinazoline-based carboxylic acids as non-classical carbonic anhydrase IX and XII inhibitors” (Journal of Enzyme Inhibition and Medicinal Chemistry, 2023)
# What was measured:
# Experiment in all cases: NCI SRB assay
# HOP-92 = assay type: cell-based, human; conditions: for GI%: HOP-92, 10 μM; for Growth Percent: HOP-92, 1.00E-5 Molar
# K-562 = assay type: cell-based, human; conditions: for GI%: K-562, 10 μM; for Growth Percent: K-562, 1.00E-5 Molar
# MDA-MB-435 = assay type: cell-based; conditions: for GI%: MDA-MB-435, 10 μM; for Growth Percent: MDA-MB-435, 1.00E-5 Molar
# HS 578 T = assay type: cell-based, human; conditions: for GI%: HS 578 T, 10 μM; for Growth Percent: HS 578T, 1.00E-5 Molar
# HCC-2998 = assay type: cell-based, human; conditions: for GI%: HCC-2998, 10 μM; for Growth Percent: HCC-2998, 1.00E-5 Molar
# NCI/ADR-RES = assay type: cell-based, human; conditions: for GI%: 10 μM; for Growth Percent: 1.00E-5 Molar
# NCI-H23 = assay type: cell-based, human; conditions: for GI%: NCI-H23, 10 μM; for Growth Percent: NCI-H23, 1.00E-5 Molar
# OVCAR-5 = assay type: cell-based, human; conditions: for GI%: OVCAR-5, 10 μM; for Growth Percent: OVCAR-5, 1.00E-5 Molar
# COLO 205 = assay type: cell-based, human; conditions: for GI%: COLO 205, 10 μM; for Growth Percent: COLO 205, 1.00E-5 Molar
# SN12C = assay type: cell-based, human; conditions: SN12C; for Growth Percent: 1.00E-5 Molar
# BT-549 = assay type: cell-based, human; conditions: for GI%: BT-549, 10 μM; for Growth Percent: BT-549, 1.00E-5 Molar
# SK-MEL-2 = assay type: cell-based, human; conditions: for GI%: SK-MEL-2, 10 μM; for Growth Percent: SK-MEL-2, 1.00E-5 Molar
# OVCAR-4 = assay type: cell-based, human; conditions: for GI%: OVCAR-4, 10 μM; for Growth Percent: OVCAR-4, 1.00E-5 Molar
# UACC-257 = assay type: cell-based, human; conditions: for GI%: UACC-257, 10 μM; for Growth Percent: UACC-257, 1.00E-5 Molar
# SF-268 = assay type: cell-based, human; conditions: for Growth Percent: SF-268, 1.00E-5 Molar
# RPMI-8226 = assay type: cell-based, human; conditions: for GI%: RPMI-8226, 10 μM; for Growth Percent: RPMI-8226, 1.00E-5 Molar
# A549/ATCC = assay type: cell-based, human; conditions: A549/ATCC; for GI%: 10 μM; for Growth Percent: 1.00E-5 Molar
# ACHN = assay type: cell-based, human; conditions: for GI%: 10 μM; for Growth Percent: 1.00E-5 Molar
# SF-539 = assay type: cell-based, human; conditions: for GI%: SF-539, 10 μM; for Growth Percent: SF-539, 1.00E-5 Molar
# SK-MEL-28 = assay type: cell-based, human; conditions: for GI%: SK-MEL-28, 10 μM; for Growth Percent: SK-MEL-28, 1.00E-5 Molar
# OVCAR-8 = assay type: cell-based, human; conditions: for GI%: OVCAR-8, 10 μM; for Growth Percent: OVCAR-8, 1.00E-5 Molar
# SW-620 = assay type: cell-based, human; conditions: for GI%: SW-620, 10 μM; for Growth Percent: SW-620, 1.00E-5 Molar
# A498 = assay type: cell-based, human; conditions: for GI%: A498, 10 μM; for Growth Percent: A498, 1.00E-5 Molar
# U251 = assay type: cell-based, human; conditions: for GI%: U251, 10 μM; for Growth Percent: U251, 1.00E-5 Molar
# SNB-19 = assay type: cell-based, human; conditions: for GI%: SNB-19, 10 μM; for Growth Percent: SNB-19, 1.00E-5 Molar
# HCT-116 = assay type: cell-based, human; conditions: for GI%: HCT-116, 10 μM; for Growth Percent: HCT-116, 1.00E-5 Molar
# MOLT-4 = assay type: cell-based, human; conditions: for GI%: MOLT-4, 10 μM; for Growth Percent: MOLT-4, 1.00E-5 Molar
# MALME-3M = assay type: cell-based, human; conditions: for GI%: 10 μM; for Growth Percent: 1.00E-5 Molar
# NCI-H460 = assay type: cell-based, human; conditions: for GI%: NCI-H460, 10 μM; for Growth Percent: NCI-H460, 1.00E-5 Molar
# NCI-H322M = assay type: cell-based, human; conditions: for GI%: 10 μM; for Growth Percent: 1.00E-5 Molar
# LOX IMVI = assay type: cell-based, human; conditions: for GI%: 10 μM; for Growth Percent: 1.00E-5 Molar
# 786-0 = assay type: cell-based, human; conditions: for GI%: 786-0, 10 μM; for Growth Percent: 786-0, 1.00E-5 Molar
smiles,measurement,setting,value
"COc1ccc(-c2nc(Nc3ccccc3C(=O)O)c3ccccc3n2)cc1 [6c, 2-((2–(4-Methoxyphenyl)quinazolin-4-yl)amino)benzoic acid]",GI%,HOP-92,78%
same,Growth Percent,HOP-92,21.82%
same,GI%,K-562,69%
same,Growth Percent,K-562,31.34%
same,GI%,MDA-MB-435,44%
same,Growth Percent,MDA-MB-435,56.03%
same,GI%,HS 578 T,72%
same,Growth Percent,HS 578 T,28.05%
same,GI%,HCC-2998,38%
same,Growth Percent,HCC-2998,62.09%
same,GI%,NCI/ADR-RES,46%
same,Growth Percent,NCI/ADR-RES,54.40%
same,GI%,NCI-H23,38%
same,Growth Percent,NCI-H23,62.10%
same,GI%,OVCAR-5,27%
same,Growth Percent,OVCAR-5,73.07%
same,GI%,COLO 205,– (Only GI% higher than 20% are shown)
same,Growth Percent,COLO 205,81.88%
same,Growth Percent,SN12C,47.71%
same,GI%,BT-549,62%
same,Growth Percent,BT-549,37.53%
same,GI%,SK-MEL-2,57%
same,Growth Percent,SK-MEL-2,43.49%
same,GI%,OVCAR-4,66%
same,Growth Percent,OVCAR-4,34.25%
same,GI%,UACC-257,28%
same,Growth Percent,UACC-257,72.03%
same,GI%,"SF-268; SF-268, 10 μM",43%
same,Growth Percent,SF-268,56.93%
same,GI%,RPMI-8226,80%
same,Growth Percent,RPMI-8226,20.19%
same,GI%,A549/ATCC,60%
same,Growth Percent,A549/ATCC,39.61%
same,GI%,ACHN,54%
same,Growth Percent,ACHN,46.21%
same,GI%,SF-539,37%
same,Growth Percent,SF-539,63.06%
same,GI%,SK-MEL-28,35%
same,Growth Percent,SK-MEL-28,65.22%
same,GI%,OVCAR-8,40%
same,Growth Percent,OVCAR-8,60.14%
same,GI%,SW-620,61%
same,Growth Percent,SW-620,39.05%
same,GI%,A498,41%
same,Growth Percent,A498,58.92%
same,GI%,U251,66%
same,Growth Percent,U251,34.16%
same,GI%,SNB-19,55%
same,Growth Percent,SNB-19,45.59%
same,GI%,HCT-116,62%
same,Growth Percent,HCT-116,37.54%
same,GI%,MOLT-4,64%
same,Growth Percent,MOLT-4,36.24%
same,GI%,MALME-3M,31%
same,Growth Percent,MALME-3M,68.60%
same,GI%,NCI-H460,89%
same,Growth Percent,NCI-H460,11.57%
same,GI%,NCI-H322M,24%
same,Growth Percent,NCI-H322M,75.73%
same,GI%,LOX IMVI,50%
same,Growth Percent,LOX IMVI,49.53%
same,GI%,786-0,48%
same,Growth Percent,786-0,51.90%
"Cc1cccc(-c2nc(Nc3ccccc3C(=O)O)c3ccccc3n2)c1 [6a, 2-((2-(m-Tolyl)quinazolin-4-yl)amino)benzoic acid]",GI%,HOP-92,105%
same,Growth Percent,HOP-92,-5.02%
same,GI%,K-562,71%
same,Growth Percent,K-562,28.68%
same,GI%,MDA-MB-435,55%
same,Growth Percent,MDA-MB-435,44.63%
same,GI%,HS 578 T,84%
same,Growth Percent,HS 578 T,16.61%
same,GI%,HCC-2998,73%
same,Growth Percent,HCC-2998,27.10%
same,GI%,NCI/ADR-RES,75%
same,Growth Percent,NCI/ADR-RES,24.78%
same,GI%,NCI-H23,79%
same,Growth Percent,NCI-H23,20.79%
same,GI%,OVCAR-5,23%
same,Growth Percent,OVCAR-5,77.00%
same,GI%,COLO 205,– (Only GI% higher than 20% are shown)
same,Growth Percent,COLO 205,120.57%
same,GI%,SN12C; 10 μM,59%
same,Growth Percent,SN12C,40.74%
same,GI%,BT-549,100%
same,Growth Percent,BT-549,-0.68%
same,GI%,SK-MEL-2,34%
same,Growth Percent,SK-MEL-2,66.01%
same,GI%,OVCAR-4,58%
same,Growth Percent,OVCAR-4,41.88%
same,GI%,UACC-257,51%
same,Growth Percent,UACC-257,49.24%
same,Growth Percent,SF-268,37.50%
same,GI%,RPMI-8226,71%
same,Growth Percent,RPMI-8226,28.59%
same,GI%,A549/ATCC,56%
same,Growth Percent,A549/ATCC,43.63%
same,GI%,ACHN,63%
same,Growth Percent,ACHN,36.44%
same,GI%,SF-539,52%
same,Growth Percent,SF-539,47.66%
same,GI%,SK-MEL-28,50%
same,Growth Percent,SK-MEL-28,49.95%
same,GI%,OVCAR-8,40%
same,Growth Percent,OVCAR-8,60.34%
same,GI%,SW-620,65%
same,Growth Percent,SW-620,35.45%
same,GI%,A498,52%
same,Growth Percent,A498,47.56%
same,GI%,U251,73%
same,Growth Percent,U251,26.61%
same,GI%,SNB-19,79%
same,Growth Percent,SNB-19,21.25%
same,GI%,HCT-116,78%
same,Growth Percent,HCT-116,22.67%
same,GI%,MOLT-4,65%
same,Growth Percent,MOLT-4,34.28%
same,GI%,MALME-3M,63%
same,Growth Percent,MALME-3M,37.17%
same,GI%,NCI-H460,81%
same,Growth Percent,NCI-H460,19.15%
same,GI%,NCI-H322M,52%
same,Growth Percent,NCI-H322M,48.74%
same,GI%,LOX IMVI,64%
same,Growth Percent,LOX IMVI,36.42%
same,GI%,786-0,75%
same,Growth Percent,786-0,25.01%
